According to patent US20170246144A1, “METHOD OF PREVENTING OR TREATING SPINOCEREBELLAR ATAXIA BY ADMINISTRATING SILIBININ” (National Taiwan Normal University, priority 2016, published 2017):

How the values were obtained:
SH-SY5Y cells = assay: Western blotting of cleaved caspase-9, cleaved caspase-3 and cleaved PARP after MSG; format: cell-based, Human; settings: 15 μM, 100 mM MSG, 24 hours
Method: FIGS. 5A-5D show the effects of SB on the levels of cleaved caspase-9, cleaved caspase-3, and cleaved poly(ADP-ribose) polymerase (PARP) in SH-SY5Y cells treated with MSG FIG. 5A: The levels of […] in 1×10^6 SH-SY5Y cells were measured by western blotting, wherein the control group (Ctrl) was untreated SH-SY5Y cells or the cells were treated with 100 mM MSG, 100 mM MSG+15 μM SB or 100 mM MSG+10 μM MK801 (MK) for 24 hours. Actin was used as a loading control. FIGS. 5B-5D show the quantification results measured by western blotting. Data were the mean values of three independent experiments.
Caspase belongs to cysteine protease family which is typically closely related to apoptosis, wherein the activation of caspase-9, caspase-3 and […] PARP is associated with delayed excitotoxicity damages. Therefore, western blotting was performed to analyze whether silibinin can protect SH-SY5Y cells from death via caspase-dependent apoptosis pathway in the present embodiment.

SCA17 transgenic mice = assay: Western blotting of TBP/polyQ aggregation and cleaved caspase 3 in cerebellum of SCA17 mice; format: in vivo; settings: 4.5 mg/kg i.p. once every 2 days, 20 weeks old
Method: FIGS. 11A and 11B show the effects of SB on the levels of TBP (N12) and cleaved caspase-3 in SCA17 transgenic mice. Mice were grouped into wild type-saline (WT-saline), transgenic-saline (TG-saline), and transgenic-SB treatment (TG-SB) groups. Mice were injected intraperitoneally with saline or SB (4.5 mg/kg) at 8-week old once every 2 days. FIG. 11A: The extent of TBP aggregation (detected with TBP (N12) antibody) and the levels of cleaved caspase-3 in the cerebella of mice were measured by western blotting at 20-week old. Actin was used as a loading control. […] The results were shown as mean±SEM, n=6, *p<0.05, comparing to the TG-saline group.
Since the SCA17 mice were 8 weeks old, the mice were injected intraperitoneally with silibinin in saline at 4.5 mg/kg once every 2 days, designated as TG_SB group. The mice in TG_saline group were injected with same amount of saline.
In order to understand whether silibinin can reduce TBP/polyQ protein aggregation and the expression of cleaved-caspase 3 in the cerebellum of SCA17 mouse, TBP/polyQ protein aggregation and the expression of cleaved-caspase 3 in the cerebellum of SCA17 mouse were measured. […]

COc1cc(C2Oc3cc([C@H]4Oc5cc(O)cc(O)c5C(=O)[C@@H]4O)ccc3OC2CO)ccc1O (some centres unmarked) [silibinin]
reduction of cleaved PARP level, compared to the increased level with MSG only (SH-SY5Y cells): 52% | reduction of cleaved-caspase-3 level, compared to the increased level with MSG only (SH-SY5Y cells): 83% | reduction of cleaved-caspase-9 level, compared to the increased level with MSG only (SH-SY5Y cells): 125% | inhibition of TBP/polyQ protein aggregation in cerebellum (SCA17 transgenic mice): 100% | inhibition of cleaved caspase 3 protein level in cerebellum (SCA17 transgenic mice): 25%
